Results from patent US6514686B2, “Method and composition for modulating amyloidosis” (The University of British Columbia, priority 1997, dated 2003).

Legend:
Assay type in all cases: cell-based
[1] = tested on: APPs secretion in KB-3.1 human carcinoma cell line; assay: APPs secretion from KB-3.1 cells with sub-detectable p-glycoprotein
Protocol: These cells were grown in DMEM with 10% FBS. All materials and methods are as outlined as above.

[2] = tested on: APPs secretion in KB-3.1 cells transfected with human MDR1 (p-glycoprotein); assay: APPs secretion from KB-3.1 cells transiently transfected with pHaMDR1; conditions: 0.1 μM, fifteen minutes, plated cells, transfection efficiency ~10-20%; FIG. 10
Protocol: KB-3.1 cells were grown as described above. The pHaMDR1 plasmid construct encoding human MDR1 was obtained as a gift from Dr. Ira Pastan (National Cancer Institute).
For calcium-phosphate transfections, cells were plated onto 10 cm polypropylene petri dishes (Falcon) at a density of 2.0×10^6 cells/dish. To prepare the cDNA for transfection, 15 μg/plate of pHaMDR1 cDNA was mixed together with 1/10 volumes of 3 M sodium Acetate, ˜3× volume of 100% ethanol in a 1.5 ml eppendorf tube and spun in a desktop centrifuge for thirty seconds. The tube was then filled to the top with ethanol and spun at 15,000 rpm at 4° C. for ten minutes. The ethanol was aspirated, leaving a tiny pellet of cDNA on the bottom. In a sterile fumehood, the cDNA was resuspended with 450 μl of 0.1× tris-EDTA(TE) ethylene diamine tetraacetic acid, tris EDTA and 50 μl of 2.5 M CaCl2. 500 μL of 2× BES (50 mM N, N-bis[2 Hydroxyethyl]2-aminoethanesu acid, 280 mM NaCl, 1.5 mM Na2HPO4.2 H2O, pH 6.96) was added to make a final volume of 1.0 ml. The entire mixture was allowed to sit for twenty minutes before adding the contents to the plate of cells. […]
Exposures were performed without resuspending the cells, in contrast to previous experiments described above. […] 5 μl from each sample was collected for protein quantification. Protein determination and APPs quantification were performed as previously described.

[3] = tested on: APPs secretion in wild-type PC12 cells; assay: APPs secretion from wild-type PC12 cells, fifteen minute exposure
Source text: Phorbol 12-myristate 13-acetate (PMA) was purchased from LC Service Corp., Woburn, Mass. All other materials were obtained as previously described in Example 1. Wild-type PC12 cells were purchased from the American Type Tissue Culture Collection # CRL-1721 and grown in DMEM with 5% FBS fetal bovine serum and 10% horse serum (GIBCO).
PC12 cells grown to confluence were pretreated for twelve hours in DMEM supplemented with charcoal-stripped calf serum (SIGMA) as described above. After pretreatment, cells were trypsinized, resuspended, and counted as described above. 10 mls each of 1.0×10^6 cells/ml PC12 cells were aliquoted into 15 ml conical tubes containing the appropriate treatment group. PMA was used as a positive control as previous experiments had shown that such treatment increases APPs release (Buxbaum, J. D. et al., “Processing of Alzheimer β/A4 amyloid precursor protein: Modulation by agents that regulate protein phosphorylation”, Proc. Natl. Acad. Sci. USA 87:6003-6006 (1990); Caporaso, G. L. et al., “Protein phosphorylation regulates secretion of Alzheimer β/A4 amyloid precursor protein”, Proc. Natl. Acad. Sci. USA 89:3055-3059 (1992); Mills, J. and P. B. Reiner, “Phorbol esters but not the cholinergic agonists oxotremorine-M and carbachol increase release of the amyloid precursor protein in cultured rat cortical neurons”, J. Neurochem. 67:1511-1518 (1996), the teachings of which are hereby incorporated by reference). The final percentage of DMSO in all treatment groups was normalized to 0.01% (v/v).
Treatment groups were as follows: a) Control; b) PMA (0.1 μM); c) RU-486 (0.1 μM). The concentration of (0.1 μM) RU-486 was chosen because it was near the EC50 mark (FIG. 4). 1.0 ml of each treatment group was pipetted into 1.5 eppendorf tubes and incubated at 37° C. in a […] incubator for fifteen minutes. Harvesting and concentration of APPs were performed as described in Example 1. Protein band separation on SDS-PAGE, visualization of bands, and quantification of APPs were also performed as previously described.
Materials and methods utilized were as outlined above. […]

[4] = tested on: APPs secretion in GSrasDN1 PC12 cells; assay: APPs secretion from GSrasDN1 PC12 cells (22C11 western blot, densitometry)
Source text: The GSrasDN1 PC12 subline (Dr. Simon Halegous (State University of New York at Stony Brook)) expressing the dominant inhibitory mutant ras gene, p21^N17 under the control of a dexamethasone-inducible MMTV promoter (mouse mammary tumor virus), obtained as a gift from Dr. Simon Halegoua, (Kremer et al., J. Cell Biol. 115(3):809-819 (1991)) and grown in Dulbecco's modified Eagles' medium (DMEM, GIBCO) containing 5% fetal bovine serum (FBS: v/v) and 10% heat inactivated horse serum (HS, GIBCO).
RU-486 and NGF were solubilized in dimethylsulfoxide (DMSO). DMSO was used as a control vehicle in all experiments.
For drug exposure experiments in GSrasDN1 PC12 cells, cells were grown to confluence in 75 cm^2 polypropylene culture flasks from Falcon. Twelve hours prior to drug treatment, the culture medium was aspirated using a pasteur pipette and replaced with 10 ml of DMEM supplemented with 15% charcoal-stripped calf serum (SIGMA) to remove complement, immunoglobulins and endogenous steroid hormones secreted from the cells. Twelve hours later, this supplemental medium was aspirated and replaced with 10 ml of DMEM containing the treatment drugs. Flasks were allotted into the following treatment groups: a) Control and b) RU-486 (3.0 μM). DMSO concentrations were normalized to 0.06% (v/v) in all flasks.
Twelve hours following drug exposure, the medium was again aspirated and the cells were washed once with 10 ml of phosphate-buffered saline (PBS, SIGMA). Cells were removed from the bottom of the flask by incubating with 1.0 ml of trypsin (GIBCO) for five minutes. […]
After the fifteen minutes had elapsed, the tubes were placed immediately on ice to stop any reactions and 200 μl of a protease cocktail (100 μM PMSF (phenylmethanesulfonyl fluoride), 5 μg/ml Leupeptin, 5 μg/ml Aprotinin, and 5)μg/ml Pepstatin) was added to each tube. […] The nuclear fraction was pelletted down at 14,000 rpm for ten min. and 5 μl of cellular homogenate was collected for a protein quantification. […]

[5] = RU-486, dexamethasone 0.1 μM, progesterone, desmethoxyverapamil 1 μM, FIG. 7, 8

**Q.** `CCCCCCCCCCCCCC(=O)O[C@@H]1[C@@H](C)[C@@]2(O)[C@@H](C=C(CO)C[C@]3(O)C(=O)C(C)=C[C@@H]23)[C@@H]2C(C)(C)[C@]12OC(C)=O` [PMA, Phorbol 12-myristate 13-acetate] was tested. Which “modulation of APPs secretion” value ([1]; cells in suspension, FIG. 9) did it give?
**A.** do not regulate

**Q.** And the “regulation of APPs secretion” value ([1]; non-transfected cells exposed while plated, 0.1 μM, fifteen minutes)?
**A.** no regulation

**Q.** And the “regulation of APPs secretion” value [2]?
**A.** restored regulation

**Q.** And the “effect on APPs secretion” value ([3]; 0.1 μM, no drug pretreatment, FIG. 5)?
**A.** increase

**Q.** With `CC#C[C@]1(O)CC[C@H]2[C@@H]3CCC4=CC(=O)CCC4=C3[C@@H](c3ccc(N(C)C)cc3)C[C@@]21C` [RU-486, 17β-hydroxy-11β-[4-dimethylaminophenyl]-17α prop-l-ynyl estra-4,9-dien-3 one] as the compound, how does the “increase in APPs secretion over NGF” value ([4]; RU-486 3.0 μM versus NGF 50 ng/ml, FIG. 2) read?
**A.** ~6 fold

**Q.** What about the “increase in APPs secretion over control samples” value ([4]; RU-486 3.0 μM, twelve hours exposure, APPs collected fifteen minutes, FIG. 2) of the same compound?
**A.** ~12.5 fold

**Q.** What about the “increased APPs secretion” value ([4]; at 3.0 μM RU-486, sub-maximal concentration, FIG. 4) of the same compound?
**A.** ~21 fold

**Q.** With `COc1cccc(CCN(C)CCCC(C#N)(c2ccc(OC)c(OC)c2)C(C)C)c1` (stereo not drawn) [desmethoxyverapamil] as the compound, how does the “effect on APPs secretion” value [3, 5] read?
**A.** significantly increased

**Q.** With `CC(=O)[C@H]1CC[C@H]2[C@@H]3CCC4=CC(=O)CC[C@]4(C)[C@H]3CC[C@]12C` [progesterone, Progesterone] as the compound, how does the “effect on APPs secretion” value [3, 5] read?
**A.** significantly increased
